# Source: US20230114728A1 (Venatorx Pharmaceuticals, Inc., priority 2019, published 2023)
# Target: T1, P. aeruginosa PBP3 (Pseudomonas aeruginosa, UniProt G3XD46)
# T1 construct: made in house
# Experiment: Bocillin-FL fluorescence polarization competition binding assay, P. aeruginosa PBP3
# Settings: fluorescence polarization competition binding assay using Bocillin-FL
# Procedure, shortened: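 Binding of boronic acid inhibitors to purified Pseudomonas aeruginosa (PA01) PBP3 was measured by fluorescence polarization competition with Bocillin-FL, a fluorescent penicillin V. Reactions of 80 μl contained 0.75 μM PBP3 and 0.1 μM Bocillin-FL in 50 mM Hepes (pH 8.0), 300 mM NaCl and 5% (v/v) glycerol, in black 384-well plates. FP (Excitation 490 nm, Emission 520 nm) was read for up to 60 minutes. EC50 is the concentration that halves PBP-bound Bocillin-FL.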
# T1 sequence (G3XD46 whole entry): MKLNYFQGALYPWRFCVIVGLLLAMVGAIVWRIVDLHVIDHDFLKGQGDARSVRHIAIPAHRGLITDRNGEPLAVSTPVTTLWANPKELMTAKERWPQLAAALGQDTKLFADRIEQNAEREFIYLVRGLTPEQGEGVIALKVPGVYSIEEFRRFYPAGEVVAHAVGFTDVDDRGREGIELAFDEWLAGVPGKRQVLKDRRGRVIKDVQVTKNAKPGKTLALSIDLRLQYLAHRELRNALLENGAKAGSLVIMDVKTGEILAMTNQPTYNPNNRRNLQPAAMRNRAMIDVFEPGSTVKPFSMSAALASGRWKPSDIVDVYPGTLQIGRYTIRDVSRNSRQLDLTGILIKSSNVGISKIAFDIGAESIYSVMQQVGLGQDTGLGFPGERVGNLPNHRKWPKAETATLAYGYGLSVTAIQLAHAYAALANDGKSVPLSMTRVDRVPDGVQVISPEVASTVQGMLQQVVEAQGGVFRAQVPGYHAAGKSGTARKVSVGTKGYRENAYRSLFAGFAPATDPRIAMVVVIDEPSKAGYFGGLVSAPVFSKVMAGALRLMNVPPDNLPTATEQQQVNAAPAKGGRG
row,SMILES,P. aeruginosa PBP3 Potency
1,"CCN1CCN(C(=O)NC(C(=O)N[C@H]2Cc3cccc(C(=O)O)c3OB2O)c2ccc(O)c(NS(C)(=O)=O)c2)C(=O)C1=O (stereo partly drawn) [Example 22, (3R)-3-(2-(4-ethyl-2,3-dioxopiperazine-1-carboxamido)-2-(4-hydroxy-3-(methylsulfonamido)phenyl)acetamido)-2-hydroxy-3,4-dihydro-2H-benzo[e][1,2]oxaborinine-8-carboxylic acid]",D (D represents a potency <10 μM)
2,"N[C@@H](C(=O)N[C@H]1Cc2ccc(F)c(C(=O)O)c2OB1O)c1ccc(OS(=O)(=O)F)cc1 [Example 32, (R)-3-((R)-2-amino-2-(4-((fluorosulfonyl)oxy)phenyl)acetamido)-7-fluoro-2-hydroxy-3,4-dihydro-2H-benzo[e][1,2]oxaborinine-8-carboxylic acid]",A (A represents a potency of >500 μM)
3,"N=C(N)NC(C(=O)N[C@H]1Cc2ccc(F)c(C(=O)O)c2OB1O)c1ncc(O)cc1F (stereo partly drawn) [Example 52, (3R)-7-fluoro-3-(2-(3-fluoro-5-hydroxypyridin-2-yl)-2-guanidinoacetamido)-2-hydroxy-3,4-dihydro-2H-benzo[e][1,2]oxaborinine-8-carboxylic acid]",A (A represents a potency of >500 μM)
4,"CCN1CCN(C(=O)NC(C(=O)N[C@H]2Cc3cccc(C(=O)O)c3OB2O)c2ccc(O)c(N(S(C)(=O)=O)S(C)(=O)=O)c2)C(=O)C1=O (stereo partly drawn) [Example 21, (3R)-3-(2-(4-ethyl-2,3-dioxopiperazine-1-carboxamido)-2-(4-hydroxy-3-(N-(methylsulfonyl)methylsulfonamido)phenyl)acetamido)-2-hydroxy-3,4-dihydro-2H-benzo[e][1,2]oxaborinine-8-carboxylic acid]",D (D represents a potency <10 μM)
5,"NS(=O)(=O)NC(C(=O)N[C@H]1Cc2cccc(C(=O)O)c2OB1O)c1ccc(C(=O)O)c(F)c1 (stereo partly drawn) [Example 44, (3R)-3-(2-(4-carboxy-3-fluorophenyl)-2-(sulfamoylamino)acetamido)-2-hydroxy-3,4-dihydro-2H-benzo[e][1,2]oxaborinine-8-carboxylic acid]",C (C represents a potency between 10 and 30 μM)
6,"CCN1CCN(C(=O)NC(C(=O)N[C@H]2Cc3cccc(C(=O)O)c3OB2O)c2ccc(O)c(NC(C)=O)c2)C(=O)C1=O (stereo partly drawn) [Example 17, (3R)-3-(2-(3-acetamido-4-hydroxyphenyl)-2-(4-ethyl-2,3-dioxopiperazine-1-carboxamido)acetamido)-2-hydroxy-3,4-dihydro-2H-benzo[e][1,2]oxaborinine-8-carboxylic acid]",D (D represents a potency <10 μM)
7,"CCN1CCN(C(=O)NC(C(=O)N[C@H]2Cc3cccc(C(=O)O)c3OB2O)c2ccc(O)c(N)c2)C(=O)C1=O (stereo partly drawn) [Example 29, (3R)-3-(2-(3-amino-4-hydroxyphenyl)-2-(4-ethyl-2,3-dioxopiperazine-1-carboxamido)acetamido)-2-hydroxy-3,4-dihydro-2H-benzo[e][1,2]oxaborinine-8-carboxylic acid]",D (D represents a potency <10 μM)
8,"N=C(N)NCCN1CCN(C(=O)NC(C(=O)N[C@H]2Cc3ccc(F)c(C(=O)O)c3OB2O)c2ncc(O)cc2F)C(=O)C1=O (stereo partly drawn) [Example 51, (3R)-7-fluoro-3-(2-(3-fluoro-5-hydroxypyridin-2-yl)-2-(4-(2-guanidinoethyl)-2,3-dioxopiperazine-1-carboxamido)acetamido)-2-hydroxy-3,4-dihydro-2H-benzo[e][1,2]oxaborinine-8-carboxylic acid]",D (D represents a potency <10 μM)
9,"O=C(NC(C(=O)N[C@H]1Cc2ccc(F)c(C(=O)O)c2OB1O)c1ncc(O)cc1F)c1c(F)cc(O)c(O)c1Cl (stereo partly drawn) [Example 10, (3R)-3-(2-(2-chloro-6-fluoro-3,4-dihydroxybenzamido)-2-(3-fluoro-5-hydroxypyridin-2-yl)acetamido)-7-fluoro-2-hydroxy-3,4-dihydro-2H-benzo[e][1,2]oxaborinine-8-carboxylic acid]",D (D represents a potency <10 μM)
